Like-named read-outs stand apart in the source and are kept apart here.
Key:
[1] = system: L1210 murine leukemia cell lines; assay: In vitro antitumor screening (PDC test), L1210 murine leukemia cell growth; type: cell-based; details: Mus musculus, 72 h; L1210 cells, 37° C., three days; value is ID50 multiplied by 10^7
Experimental: Another test protocol is the in vitro antitumor screening (PDC test) of compounds of the present invention on L1210 murine leukemia cell lines. L1210 cells, a murine leukemia cell line, were grown in RPMI 1640 supplemented with 5% fetal bovine serum and gentamicin (50 μg/ml).
Drug dilutions were prepared in the apropriate solvent and 20 μl of each dilution were added to 24-well Linbro tissue culture plats, followed by the addition of M 2.0 ml of cell suspension containing 3×10^4 cells per ml. Solvent and medium controls were included in each test. After incubation at 37° C. for three days in 5% CO2, the contents of each well were removed and the cells counted in a ZBI Coulter counter. Percent growth was calculated relative to the controls and the levels of drug activity wre expressed as ID50 in moles per liter using probit paper.

[2] = system: lymphocytic leukemia P388; assay: In vivo lymphocytic leukemia P388 test; design: species or system CD2 F1 mice; details: Mus musculus, P388, ip, read-out: P388 in vivo T/C × 100
Experimental: Another test protocol is the in vivo lymphocytic leukemia P388 test. the animals used are either male or female CD2 F1 mice, six or seven animals per test group. The tumor transplant is by intraperitoneal injection of dilute ascitic fluid containing cells of lymphocytic leukemia P388. The test compounds are administered intraperitoneally once daily for five consecutive days at various doses following tumor inoculation. The animals are weighed and survivors are recorded on a regular basis for 30 days. A compound is designated "toxic" if, at a given dose, all animals die prior to four days after the first injection of drug. A ratio of survival time for treated (T)/control (C) animals is calculated. A criterion for efficacy is a ratio T/C times 100 greater than or equal to 125. See Cancer Chemotherapy Reports, Part 3, 3, 1 (1972) for a comprehensive discussion of the protocol.

HCT-8 cells = assay: In vitro proliferating human colon adenocarcinoma (HCA) cell screen, HCT-8 cells; type: cell-based; details: 60-65 hours at 37° C., value is ID50 multiplied by 10^7;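 note: ID50 is the molar concentration giving 50% growth inhibition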
Experimental: One test protocol is the in vitro proliferating human colon adenocarcinoma (HCA) cell screen. In this test, HCT-8 cells (HCA cell line received from Yale University) are trypsinized using trypsin-EDTA. A single cell suspension is achieved by passing the cells through a 26-gauge needle with a 20-cc syringe. A cell suspension is prepared using RPMI 1640+10% FCS+50 μg/ml gentamicin sulfate with a cell concentration of approximately 5,000 cells/ml. The cell suspension is dispensed in Linbro 24-well plates; 1 ml/well. The plates are incubated for approximately 48 hours at 37° C. in a 5% CO2 atmosphere. At this time test compounds are added in the appropriate concentration. Ten μl of the appropriate dilution is added to each well for a titration test. The plates are reincubated an additional 60-65 hours at 37° C. in a 5% CO2 atmosphere. The cells are lysed using a mix of cationic surfactant, glacial acetic acid and sodium chloride. Two ml of the lysed cell suspension from each well is added to 8 ml of diluent. The number of nuclei is determined using a Coulter counter (ZBI model), and a percent growth for each drug concentration is calculated.

[3] = system: Corynebacterium Sp. ATCC 21698; assay: In vitro antibacterial (ABMF) microdilution test, Corynebacterium Sp.; type: cell-based; details: ATCC21698, Mueller-Hinton broth, 37° C., 16-24 hours, read-out: ABMF minimal inhibitory conc, Coryn. Species
Source text: (§1) Still another test protocol is the in vitro antibacterial (ABMF) test which is a recognized standard microdilution susceptibility procedure in Mueller-Hinton broth against Gram-positive and Gram-negative bacterial test organisms. The procedure is a modification of a state-of-the-art procedure reported in Manual of Clinical Microbiology, Lennette, E. H., ed., by Barry, A. L. and C. Thornsberry at pages 463-474 and by Gavan, T. L. and A. L. Barry at pages 459-462, American Society for Microbiology, Washington, 1980.
(§2) In the test, a given bacterial culture is used to inoculate individual test wells of microdilution trays containing growth medium and test compound, the latter in a microdilution series: 1000, 333, 111, 37, 12, 4, 1.4, and 0.46 micrograms per milliliter. […] For convenience, values are reported for Escherichia coli, Corynebacterium Sp. ATCC 21698, Branhamella catarrhalis, Streptococcus pneumoniae, and Bacillus cereus.

Streptococcus pneumoniae = assay: In vitro antibacterial (ABMF) microdilution test, Streptococcus pneumoniae; type: cell-based; details: Mueller-Hinton broth, 37° C., 16-24 hours, read-out: ABMF minimal inhibitory conc, S. pneu.
Source text: as §1, §2

Escherichia coli = assay: In vitro antibacterial (ABMF) microdilution test, Escherichia coli; type: cell-based; details: Mueller-Hinton broth, 37° C., 16-24 hours, read-out: ABMF minimal inhibitory conc, E. coli
Source text: as §1, §2

Bacillus cereus = assay: In vitro antibacterial (ABMF) microdilution test, Bacillus cereus; type: cell-based; details: Mueller-Hinton broth, 37° C., 16-24 hours, read-out: ABMF minimal inhibitory conc, B. cer.
Source text: as §1, §2

Branhamella catarrhalis = assay: In vitro antibacterial (ABMF) microdilution test, Branhamella catarrhalis; type: cell-based; details: Moraxella catarrhalis; Mueller-Hinton broth, 37° C., 16-24 hours; read-out: ABMF minimal inhibitory conc, B. cat.
Source text: as §1, §2

[4] = intraperitoneal, once daily for five days, survival time treated/control
[5] = 50 mg/kg, intraperitoneal, once daily for five days, survival time treated/control

SMILES | IC50 [1] | IC50 (HCT-8 cells) | MIC [3] | MIC (Streptococcus pneumoniae) | MIC (Escherichia coli) | MIC (Bacillus cereus) | MIC (Branhamella catarrhalis) | response vs control in vivo at 25 mg/kg [2, 4] | response vs control in vivo at 50 mg/kg [2, 5] | response vs control in vivo at 12.5 mg/kg [2, 4] | response vs control in vivo at 100 mg/kg [2, 4] | response vs control in vivo at 200 mg/kg [2, 4] | response vs control in vivo at 50 mg/kg ([2]; 120 h)
CCCCOc1ccc2[nH]c3c([N+](=O)[O-])ccc(NCCCN(C)C)c3c(=O)c2c1.CS(=O)(=O)O [Example 24, 7-Butoxy-1-[[3-(dimethylamino)propyl]amino]-4-nitro-9(10H)-acridinone, methanesulfonate] | 350 nM | 370 nM | 4.1 µg/mL | 1.4 µg/mL | 12.3 µg/mL | 111 µg/mL | 12.3 µg/mL | 151% | – | 123% | – | – | –
CCOc1ccc2[nH]c3c([N+](=O)[O-])ccc(NCCN(CCO)CCO)c3c(=O)c2c1 [Example 19, 1-[[2-Bis(2-hydroxyethyl)amino]ethyl]amino]-7-ethoxy-4-nitro-9(10H)-acridinone, methanesulfonate 0.8 hydrate] | 1500 nM | 1010 nM | > 1000 µg/mL | > 1000 µg/mL | > 1000 µg/mL | > 1000 µg/mL | 111 µg/mL | – | – | – | 130% | 147% | –
CCOc1ccc2[nH]c3c([N+](=O)[O-])ccc(NC(C)CN(C)C)c3c(=O)c2c1 (centres unmarked) [Example 13, 1[[2-(Dimethylamino)-1-methylethyl]amino]-7-ethoxy-4-nitro-9(10H)-acridinone, monomethanesulfonate, hyrate] | 1090 nM | 500 nM | < 0.46 µg/mL | 1.4 µg/mL | 12.3 µg/mL | 12.3 µg/mL | 4.1 µg/mL | 180% | – | – | – | – | 227%
CCN(CC)CCNc1ccc([N+](=O)[O-])c2[nH]c3ccc(O)cc3c(=O)c12 [Example 2, 1-[[2-(Diethylamino)ethyl]amino]-7-hydroxy-4-nitro-9(10H)-acridinone, methanesulfonate (1:1), hydrate (1:1)] | 6.7 nM | 4.5 nM | < 0.46 µg/mL | < 0.46 µg/mL | < 0.46 µg/mL | < 0.46 µg/mL | < 0.46 µg/mL | – | – | 250% | – | – | –

Second part, led by results:

IC50 [1] | IC50 (HCT-8 cells) | MIC [3] | MIC (Streptococcus pneumoniae) | MIC (Escherichia coli) | MIC (Bacillus cereus) | MIC (Branhamella catarrhalis) | SMILES | response vs control in vivo at 25 mg/kg [2, 4] | response vs control in vivo at 50 mg/kg [2, 5] | response vs control in vivo at 12.5 mg/kg [2, 4] | response vs control in vivo at 100 mg/kg [2, 4] | response vs control in vivo at 200 mg/kg [2, 4] | response vs control in vivo at 50 mg/kg ([2]; 120 h)
390 nM | 340 nM | < 0.46 µg/mL | < 0.46 µg/mL | 1.4 µg/mL | 4.1 µg/mL | < 0.46 µg/mL | CN(C)CCNc1ccc([N+](=O)[O-])c2[nH]c3ccccc3c(=O)c12 [Example 8, 1-[[2-(Dimethylamino)ethyl]amino]-4-nitro-9(10H)-acridinone, methanesulfonate (1:1), hemihydrate] | 142% | 185% | – | – | – | –
260 nM | 890 nM | < 0.46 µg/mL | < 0.46 µg/mL | > 1000 µg/mL | > 1000 µg/mL | < 0.46 µg/mL | COc1ccc2[nH]c3c([N+](=O)[O-])ccc(NCCN(C)C)c3c(=O)c2c1.CS(=O)(=O)O [Example 9, 1-[[2-(Dimethylamino)ethyl]amino]-7-methoxy-4-nitro-9(10H)-acridinone, methanesulfonate (1:1)] | 124% | 146% | – | 201% | 269% | –
880 nM | 450 nM | 4.1 µg/mL | < 0.46 µg/mL | 1.4 µg/mL | 4.1 µg/mL | 4.1 µg/mL | COc1ccc2[nH]c3c([N+](=O)[O-])ccc(NC(C)CN(C)C)c3c(=O)c2c1 (centres unmarked) [Example 12, 1-[[2-Dimethylamino)-1-methylethyl]amino]-7-methoxy-4-nitro-9(10H)-acridinone, methanesulfonate, 1.25 hydrate] | 122% | 144% | – | 180% | 245% | –
2400 nM | 1100 nM | < 0.46 µg/mL | < 0.46 µg/mL | 111 µg/mL | 4.1 µg/mL | < 0.46 µg/mL | CCN(CC)CCNc1ccc([N+](=O)[O-])c2[nH]c3ccc(OC)cc3c(=O)c12.CS(=O)(=O)O [Example 3, 1-[[2-(Diethylamino)ethyl]amino]-7-methoxy-4-nitro-9(10H)-acridinone, methanesulfonate (1:1)] | 151% | 178% | 126% | 237% | 296% | –
680 nM | 400 nM | 4.1 µg/mL | > 1000 µg/mL | > 1000 µg/mL | > 1000 µg/mL | 37 µg/mL | CCOc1ccc2[nH]c3c([N+](=O)[O-])ccc(NCCN(CC)CC)c3c(=O)c2c1.CS(=O)(=O)O [Example 4, 1-[[2-(Diethylamino)ethyl]amino]-7-ethoxy-4-nitro-9(10H)-acridinone, methanesulfonate (1:1)] | 149% | 211% | 129% | 273% | – | –

— patent publication US4626540A, “Substituted 1-amino-4-nitro-acridinones and methods of treating bacterial infections and leukemia with them” (Warner-Lambert Company, priority 1984, dated 1986)
